Assay results as given in US20240309016A1, “MACROCYCLIC HETEROCYCLE COMPOUNDS AND USE THEREOF” (TAKEDA PHARMACEUTICAL COMPANY LIMITED, priority 2023, published 2024).
Counter-ions that a name gives are not always drawn. Like-named read-outs stand apart in the source and are kept apart here.

Tests used:
human OX2 receptor = biological target: T1, human OX2 receptor (Homo sapiens, UniProt O43614); assay: Measurement of orexin type 2 receptor agonist activity (Experimental Example 3; calcium 5 dye, FLIPR Tetra); type: cell-based; details: compound at 1 μM; CHO cells expressing human OX2 receptor; DMSO = 0%, 10 nM orexin A (human) = 100%
T1 construct: expressed in transfected cells
T1 sequence (O43614 1-444): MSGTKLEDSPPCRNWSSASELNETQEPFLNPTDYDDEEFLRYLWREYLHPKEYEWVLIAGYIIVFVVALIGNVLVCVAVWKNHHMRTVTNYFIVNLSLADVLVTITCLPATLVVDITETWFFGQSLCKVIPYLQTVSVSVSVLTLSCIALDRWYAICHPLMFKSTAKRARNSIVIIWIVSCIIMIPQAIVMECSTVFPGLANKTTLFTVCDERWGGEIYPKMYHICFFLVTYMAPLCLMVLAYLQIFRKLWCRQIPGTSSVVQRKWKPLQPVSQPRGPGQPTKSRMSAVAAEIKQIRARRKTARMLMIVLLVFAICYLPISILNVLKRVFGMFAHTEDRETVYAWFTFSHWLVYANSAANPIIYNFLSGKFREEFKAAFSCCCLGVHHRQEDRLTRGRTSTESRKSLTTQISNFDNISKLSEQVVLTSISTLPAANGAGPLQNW
Procedure: In order to obtain cell clones that stably express human orexin type 2 receptor, human orexin type 2 (residues 1-444, NCBI Reference Sequence: AK314279) was constructed in a pcDNA3.1 (+) vector (Invitrogen) to express in mammalian cells. This plasmid DNA was transfected into CHO-K1 cells by electroporation, and stable clones were obtained by limiting dilution using resistance to G418 as a selection marker.
CHO cells in which human OX2 receptor was forcibly expressed were seeded at 5,000 cells/well into a 384-well black transparent bottom plate (Costar) in 25 ul complete media, and were then incubated at 37° C., 5% CO2 for 1 day. The next day, 25 ul of 2× calcium 5 dye (Molecular Devices) in assay buffer (HBSS (Thermo Fisher Scientific), 20 mM HEPES (Thermo Fisher Scientific), 2.5 mM probenecid). After incubation in a 5% CO2 incubator at 37° C. for 40 minutes, it was incubated at room temperature for another 20 minutes. Add 5 μL/well of the test compound diluted with assay buffer B (HBSS, 20 mM HEPES), using FLIPR Tetra (Molecular Devices) to measure the fluorescence value every 1 second for 1 minute, and then every 2 seconds for 1 minute. It was measured for 1 minute and 40 seconds. The amount of fluorescence value when DMSO is added instead of the test compound is defined as 0%, and the amount of fluorescence value when orexin A (human) (Peptide Institute) with a final concentration of 10 nM is added is defined as 100%. The activity (%) of the test compound was calculated.

| Structure (SMILES) | OX2R agonist activity (1 μM, %) (human OX2 receptor) [%] | other results |
| --- | --- | --- |
| CCS(=O)(=O)N[C@@H]1[C@@H]2Cc3cccc(c3F)Cc3nc(ccc3C)OCC(=O)N2CC1(F)F [Example 102, N-[(15aS,16R)-17,17,20-trifluoro-7-methyl-1-oxo-1,2,15a,16,17,18-hexahydro-9H,15H-4,8-(azeno)-10,14-(metheno)pyrrolo[1,2-d][1,4]oxazacycloheptadecin-16-yl]ethanesulfonamide] | 94 | – |
| CC(C)S(=O)(=O)N[C@@H]1[C@@H]2Cc3cccc(c3F)Oc3nc(ccc3C(F)F)CNC(=O)N2CC1(F)F [Example 110, N-[(15aS,16R)-7-(difluoromethyl)-17,17,20-trifluoro-1-oxo-2,3,15a,16,17,18-hexahydro-1H,15H-4,8-(azeno)-10,14-(metheno)pyrrolo[1,2-j][1,8,10]oxadiazacyclo-heptadecin-16-yl]propane-2-sulfonamide] | 108 | – |
| CCS(=O)(=O)N[C@@H]1[C@@H]2Cc3cccc(c3F)Oc3nc(ccc3C)NCC(=O)N2CC1(F)F [Example 99, N-[(15aS,16R)-17,17,20-trifluoro-7-methyl-1-oxo-2,3,15a,16,17,18-hexahydro-1H,15H-4,8-(azeno)-14,10-(metheno)pyrrolo[1,2-j][1,7,10]oxadiazacyclo-heptadecin-16-yl]ethanesulfonamide] | 97 | ring closure, yield of all isomers (from CCS(=O)(=O)N[C@@H]1[C@H](Cc2cccc(Oc3nc(NCC(=O)O)ccc3C)c2F)NCC1(F)F, amide bond, HATU / DIPEA, DMF, 1.74 mM, 25.0 °C, 12.0 h): 13.3% |
| CCS(=O)(=O)N[C@@H]1[C@@H]2Cc3cccc(c3F)C(F)(F)c3nc(ccc3C)CNC(=O)N2CC1(F)F [Example 100, N-[(15aS,16R)-9,9,17,17,20-pentafluoro-7-methyl-1-oxo-2,3,15a,16,17,18-hexahydro-1H,9H,15H-4,8-(azeno)-14,10-(metheno)pyrrolo[1,2-c][1,3]diazacycloheptadecin-16-yl]ethanesulfonamide] | 84 | ring closure, yield of all isomers (from CCS(=O)(=O)N[C@@H]1[C@H](Cc2cccc(C(F)(F)c3nc(CN)ccc3C)c2F)NCC1(F)F, other bond, CDI/DIPEA, THF, 11.0 mM, 45.0 °C, 16.0 h): 30.8% |
| CCS(=O)(=O)N[C@@H]1[C@@H]2Cc3cccc(c3F)[C@@H](C)c3nc(ccc3C)CNC(=O)N2CC1(F)F (single isomer, unassigned) [Example 105, N-[(9R,15aS,16R)-17,17,20-trifluoro-7,9-dimethyl-1-oxo-2,3,15a,16,17,18-hexahydro-1H,9H,15H-4,8-(azeno)-10,14-(metheno)pyrrolo[1,2-c][1,3]diazacycloheptadecin-16-yl]ethanesulfonamide or N-[(9S,15aS,16R)-17,17,20-trifluoro-7,9-dimethyl-1-oxo-2,3,15a,16,17,18-hexahydro-1H,9H,15H-4,8-(azeno)-10,14-(metheno)pyrrolo[1,2-c][1,3]diazacycloheptadecin-16-yl]ethanesulfonamide] | 106 | – |
| CCS(=O)(=O)N[C@@H]1[C@@H]2Cc3cccc(c3F)Cc3nc(ccc3C)CNC(=O)N2CC1(F)F [Example 104, N-[(15aS,16R)-17,17,20-trifluoro-7-methyl-1-oxo-2,3,15a,16,17,18-hexahydro-1H,9H,15H-4,8-(azeno)-10,14-(metheno)pyrrolo[1,2-c][1,3]diazacycloheptadecin-16-yl]ethanesulfonamide hydrochloride] | 109 | – |
| CCS(=O)(=O)N[C@@H]1[C@@H]2Cc3cccc(c3F)[C@H](C)c3nc(ccc3C)CNC(=O)N2CC1(F)F (single isomer, unassigned) [Example 106] | 90 | – |
| Cc1cc(F)c2nc1Oc1cccc(c1F)C[C@H]1[C@@H](NS(=O)(=O)C(C)C)C(F)(F)CN1C(=O)NC2 [Example 109, N-[(15aS,16R)-5,17,17,20-tetrafluoro-7-methyl-1-oxo-2,3,15a,16,17,18-hexahydro-1H,15H-4,8-(azeno)-10,14-(metheno)pyrrolo[1,2-j][1,8,10]oxadiazacyclo-heptadecin-16-yl]propane-2-sulfonamide] | 108 | – |
| CCS(=O)(=O)N[C@@H]1[C@@H]2Cc3cccc(c3F)Cc3nc(ccc3C)O[C@@H](C)C(=O)N2CC1(F)F [Example 111, N-[(2S,15aS,16R)-17,17,20-trifluoro-2,7-dimethyl-1-oxo-1,2,15a,16,17,18-hexahydro-9H,15H-4,8-(azeno)-10,14-(metheno)pyrrolo[1,2-d][1,4]oxazacycloheptadecin-16-yl]ethanesulfonamide] | 103 | ring closure, yield of all isomers (from CCS(=O)(=O)N[C@@H]1[C@H](Cc2cccc(Cc3nc(O[C@@H](C)C(=O)O)ccc3C)c2F)NCC1(F)F, amide bond, HATU/DIPEA, DMF, 2.83 mM, 25.0 °C, 16.0 h): 11.8% |
| CC(C)S(=O)(=O)N[C@@H]1[C@@H]2Cc3cccc(c3F)Oc3nc(ccc3Cl)CNC(=O)N2CC1(F)F [Example 108, N-[(15aS,16R)-7-chloro-17,17,20-trifluoro-1-oxo-2,3,15a,16,17,18-hexahydro-1H,15H-4,8-(azeno)-10,14-(metheno)pyrrolo[1,2-j][1,8,10]oxadiazacyclo-heptadecin-16-yl]propane-2-sulfonamide] | 101 | – |
| CCS(=O)(=O)N[C@@H]1[C@@H]2Cc3c(C)ccc(c3F)Oc3nc(ccc3C)CNC(=O)N2CC1(F)F [Example 98, N-[(15aS,16R)-17,17,20-trifluoro-7,13-dimethyl-1-oxo-2,3,15a,16,17,18-hexahydro-1H,15H-4,8-(azeno)-14,10-(metheno)pyrrolo[1,2-j][1,8,10]oxadiazacyclo-heptadecin-16-yl]ethanesulfonamide] | 65 | – |
